Where two headings read alike, the source gives them in different places.
Legend:
HBV = assay: Determination of HBV DNA from the supernatants of HepAD38 cells (anti-HBV activity); assay type: cell-based, hepatitis B virus; settings: Hepatitis B virus, read-out: Cell Activity (EC50)
Outline: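 HepAD38 cells, tetracycline withdrawn to induce HBV, treated with serial half-log compound dilutions; on day 6 HBV DNA purified from filtered supernatant and quantified by real-time PCR against HBV plasmid standards; EC50 from relative copy numbers by non-linear regression, three experiments in triplicate.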

HBV core protein = target: T1, HBV core protein (UniProt P03146); assay: Biochemical capsid assembly assay (fluorescence quenching); parameters: species or system hepatitis B virus; settings: read-out: Assembly Activity (IC50); BODIPY-FL labelled core protein, 300 μM NaCl, read 6 min after start
T1 construct: fused on or other part: BODIPY-FL maleimide label on the C-terminal Cys150
Description: Biochemical Capsid Assembly Assay
The screening for assembly effector activity was done based on a fluorescence quenching assay published by Zlotnick et al. (2007). The C-terminal truncated core protein containing 149 amino acids of the N-terminal assembly domain fused to a unique cysteine residue at position 150 and was expressed in E. coli using the pET expression system (Merck Chemicals, Darmstadt). Purification of core dimer protein was performed using a sequence of size exclusion chromatography steps. In brief, the cell pellet from 1 L BL21 (DE3) Rosetta2 culture expressing the coding sequence of core protein cloned NdeI/XhoI into expression plasmid pET21b was treated for 1 h on ice with a native lysis buffer (Qproteome Bacterial Protein Prep Kit; Qiagen, Hilden). After a centrifugation step the supernatant was precipitated during 2 h stirring on ice with 0.23 g/ml of solid ammonium sulfate. Following further centrifugation the resulting pellet was resolved in buffer A (100 mM Tris, pH 7.5; 100 mM NaCl; 2 mM DTT) and was subsequently loaded onto a buffer A equilibrated CaptoCore 700 column (GE HealthCare, Frankfurt). The column flow through containing the assembled HBV capsid was dialyzed against buffer N (50 mM NaHCO3 pH 9.6; 5 mM DTT) before urea was added to a final concentration of 3M to dissociate the capsid into core dimers for 1.5 h on ice. The protein solution was then loaded onto a 1 L Sephacryl S300 column. After elution with buffer N core dimer containing fractions were identified by SDS-PAGE and subsequently pooled and dialyzed against 50 mM HEPES pH 7.5; […]. To improve the assembly capacity of the purified core dimers a second round of assembly and disassembly starting with the addition of 5 M NaCl and including the size exclusion chromatography steps described above was performed. From the last chromatography step core dimer containing fractions were pooled and stored in aliquots at concentrations between 1.5 to 2.0 mg/ml at −80° C.
Immediately before labelling the core protein was reduced by adding freshly prepared DTT in a final concentration of 20 mM. After 40 min incubation on ice storage buffer and DTT was removed using a Sephadex G-25 column (GE HealthCare, Frankfurt) and 50 mM HEPES, pH 7.5. For labelling 1.6 mg/ml core protein was incubated at 4° C. and darkness overnight with BODIPY-FL maleimide (Invitrogen, Karlsruhe) in a final concentration of 1 mM. After labelling the free dye was removed by an additional desalting step using a Sephadex G-25 column. Labelled core dimers were stored in aliquots at 4° C. In the dimeric state the fluorescence signal of the labelled core protein is high and is quenched during the assembly of the core dimers to high molecular capsid structures. The screening assay was performed in black 384 well microtiter plates in a total assay volume of 10 μl using 50 mM HEPES pH 7.5 and 1.0 to 2.0 μM labelled core protein. Each screening compound was added in 8 different concentrations using a 0.5 log-unit serial dilution starting at a final concentration of 100 μM, 31.6 μM or 10 μM, In any case the DMSO concentration over the entire microtiter plate was 0.5%. The assembly reaction was started by the injection of NaCl to a final concentration of […] which induces the assembly process to approximately 25% of the maximal quenched signal. 6 min after starting the reaction the fluorescence signal was measured using a Clariostar plate reader (BMG Labtech, Ortenberg) with an excitation of 477 nm and an emission of 525 nm. As 100% and 0% assembly control HEPES buffer containing 2.5 M and 0 M NaCl was used. Experiments were performed thrice in triplicates. EC50 values were calculated by non-linear regression analysis using the Graph Pad Prism 6 software (GraphPad Software, La Jolla, USA).

[1] = Cell viability assay (AlamarBlue) in HepAD38 cells; settings: human
[2] = 144 h, HBV DNA in HepAD38 supernatant, day 6, qPCR

T1 sequence (P03146 whole entry, looked up, the tested form may be a part): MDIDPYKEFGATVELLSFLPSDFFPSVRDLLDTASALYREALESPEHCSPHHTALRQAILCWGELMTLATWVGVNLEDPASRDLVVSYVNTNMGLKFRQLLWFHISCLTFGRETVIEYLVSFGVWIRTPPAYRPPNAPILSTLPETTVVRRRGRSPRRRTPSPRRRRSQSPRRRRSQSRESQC

Compound	EC50 (HBV; [2])	IC50 (HBV core protein)	CC50 at 6 days [1]	EC50 (HBV; HePAD38, 144 h)
CN(CCO)C(=O)c1n[nH]c2c1CN(C(=O)c1cc3c(F)c(F)ccc3[nH]1)CC2 [Example 52, 5-(4,5-difluoro-1H-indole-2-carbonyl)-N-(2-hydroxyethyl)-N-methyl-1H,4H,5H,6H,7H-pyrazolo[4,3-c]pyridine-3-carboxamide]	< 1 µM	< 5 µM	> 100 µM	
CN(C(=O)c1n[nH]c2c1CN(C(=O)c1cc3ccccc3[nH]1)CC2)C1(CC#N)CC1 [Example 361, N-[1-(cyanomethyl)cyclopropyl]-5-(1H-indole-2-carbonyl)-N-methyl-1H,4H,5H,6H,7H-pyrazolo[4,3-c]pyridine-3-carboxamide]	1 to 25 µM	< 5 µM	> 10 µM	
CCN(C(=O)c1n[nH]c2c1CN(C(=O)c1cc3ccccc3[nH]1)CC2)C1(COC)CC1 [Example 296, N-ethyl-5-(1H-indole-2-carbonyl)-N-[1-(methoxymethyl)cyclopropyl]-1H,4H,5H,6H,7H-pyrazolo[4,3-c]pyridine-3-carboxamide]	< 1 µM	< 5 µM	> 10 µM	
CN(CCO)C(=O)c1n[nH]c2c1CN(C(=O)c1cc3c(C(F)(F)F)cccc3[nH]1)CC2 [Example 59, N-(2-hydroxyethyl)-N-methyl-5-[4-(trifluoromethyl)-1H-indole-2-carbonyl]-1H,4H,5H,6H,7H-pyrazolo[4,3-c]pyridine-3-carboxamide]	< 1 µM	< 5 µM	> 32 µM	
CS(=O)(=O)Nc1n[nH]c2c1CN(C(=O)c1cc3ccccc3[nH]1)CC2 [Example 82, N-[5-(1H-indole-2-carbonyl)-1H,4H,5H,6H,7H-pyrazolo[4,3-c]pyridin-3-yl]methanesulfonamide]	< 100 µM	< 100 µM	> 100 µM	
CN(CC1(O)CCC1)C(=O)c1n[nH]c2c1CN(C(=O)c1cc3ccccc3[nH]1)CC2 [Example 254, N-[(1-hydroxycyclobutyl)methyl]-5-(1H-indole-2-carbonyl)-N-methyl-1H,4H,5H,6H,7H-pyrazolo[4,3-c]pyridine-3-carboxamide]	< 1 µM	< 5 µM	> 10 µM	
CN(C(=O)c1[nH]nc2c1CN(C(=O)c1cc3ccccc3[nH]1)CC2)[C@H]1CCC[C@@H]1O [Example 252, N-[(1S,2S)-2-hydroxycyclopentyl]-5-(1H-indole-2-carbonyl)-N-methyl-2H,4H,5H,6H,7H-pyrazolo[4,3-c]pyridine-3-carboxamide]	< 1 µM	< 5 µM	> 10 µM	
Cc1cc(F)cc2[nH]c(C(=O)N3CCc4[nH]ncc4C3)cc12 [Example 135, 6-fluoro-4-methyl-2-{1H,4H,5H,6H,7H-pyrazolo[4,3-c]pyridine-5-carbonyl}-1H-indole]	< 1 µM	< 5 µM	> 100 µM	
CC(C)OC(=O)[C@H](C)NP(=O)(OCCON(C)C(=O)c1n[nH]c2c1CN(C(=O)c1cc3c(Cl)cccc3[nH]1)CC2)Oc1ccccc1 (stereo partly drawn) [Example 56, propan-2-yl (2S)-2-({[2-({1-[5-(4-chloro-1H-indole-2-carbonyl)-1H,4H,5H,6H,7H-pyrazolo[4,3-c]pyridin-3-yl]-N-methylformamido}oxy)ethoxy](phenoxy)phosphoryl}amino)propanoate]		< 5 µM	> 32 µM	< 1 µM
C#CCN(C)C(=O)c1n[nH]c2c1CN(C(=O)c1cc3ccccc3[nH]1)CC2 [Example 312, 5-(1H-indole-2-carbonyl)-N-methyl-N-(prop-2-yn-1-yl)-1H,4H,5H,6H,7H-pyrazolo[4,3-c]pyridine-3-carboxamide]	< 1 µM	< 5 µM	> 10 µM	
Cc1cc(F)cc2[nH]c(C(=O)N3CCc4n[nH]c(-c5cscn5)c4C3)cc12 [Example 26, 6-fluoro-4-methyl-2-[3-(1,3-thiazol-4-yl)-2H,4H,5H,6H,7H-pyrazolo[4,3-c]pyridine-5-carbonyl]-1H-indole]	< 1 µM	< 5 µM	> 10 µM	

— US11236087B2, “Highly active pyrazolo-piperidine substituted indole-2-carboxamides active against the hepatitis B virus (HBV)” (AiCuris GmbH & Co. KG, priority 2017, dated 2022)
